# Measurements reported in patent publication US20240400986A1, “MEMBRANE BOUND COMPOSITIONS AND METHODS RELATING TO SAME” (FLAGSHIP PIONEERING INNOVATIONS VII, LLC, priority 2021, published 2024).
# Like-named read-outs stand apart in the source and are kept apart here.
# Legend:
# [1] = tested on: neuronal cell line derived from human neuroblastoma
# Protocol: For the screening, a total of 99 compounds (TargetMol) were divided in 5 groups. Each group included an untreated condition, a vehicular DMSO control, and a known high-gigasome producing condition to comparatively study gigasome production rates. As a cell death control group, 500 nM Staurosporine was added to induce apoptosis. Cultures were incubated for 24 hours under gigasome inducing conditions at concentrations ranging between 10 nM and 10,000 nM. Before the end of the treatment, live neuronal cultures were imaged. The Zeiss ZEN Blue software was used to distribute imaging fields of view (positions) to create an unbiased imaging sample of a well. 5 images were taken using a Zeiss LSM 900 confocal microscope. […] The BioApps ZEN software package was used to perform cell nucleus segmentation and counting. After 24 hours, gigasomes were harvested from the cell culture media by gently removing from the top of each 96-well ⅔ of the total volume without disturbing the cell layer (containing the settled gigasomes) and by adding to each well the same amount of PBS. […] Cells remaining in the 96-well plates were assessed for viability using CellTiter-Glo (Promega).
# [2] = tested on: neuronal cell line derived from human neuroblastoma; experiment: Small molecule compound screen of gigasome production in neuronal monocultures; details: for fold induction at 0.01 µM / fold induction at 0.1 µM / fold induction at 1 µM / fold induction at 10 µM: Homo sapiens, read-out: Fold Change of Gigasomes Produced vs. DMSO; for Number of Gigasomes Produced / Fold Change of Gigasomes Produced vs. DMSO: 24 hours
# [3] = neuronal cells, dose 10000 nM, 24 hours
# [4] = neuronal cells, dose 10 nM, 24 hours
# [5] = neuronal cells, dose 100 nM, 24 hours
# [6] = neuronal cells, dose 1000 nM, 24 hours
SMILES,fold induction at 0.01 µM ([2]; 24 h),fold induction at 0.1 µM ([2]; 24 h),fold induction at 1 µM ([2]; 24 h),"Number of Gigasomes Produced ([2]; neuronal cells, dose 10 nM)","Number of Gigasomes Produced ([2]; neuronal cells, dose 100 nM)","Number of Gigasomes Produced ([2]; neuronal cells, dose 1000 nM)","Viability [1, 3] [%]","Number of Gigasomes Produced ([2]; neuronal cells, dose 10000 nM)","Viability [1, 4] [%]","Viability [1, 5] [%]","Viability [1, 6] [%]",also measured
"CC(=O)Nc1cccc(-n2c(=O)n(C3CC3)c(=O)c3c(Nc4ccc(I)cc4F)n(C)c(=O)c(C)c32)c1 [Trametinib, reference compound]",1.25 to 1.5,1.25 to 1.5,2 to 3,35-45,35-45,65-75,–,–,–,–,–,"Viability ([1]; human, 24 h, 10 nM): >75%; Viability ([1]; human, 24 h, 100 nM): >75%; Viability ([1]; human, 24 h, 1000 nM): >75%"
O=C(Nc1ccc(O)c(C(=O)O)c1)c1cccc(NC(=O)c2ccco2)c1 [OSS_128167],–,–,–,–,–,–,100,20-25,–,–,–,"Fold Change of Gigasomes Produced vs. DMSO ([2]; neuronal cells, dose 10000 nM): 0.5-0.75"
O=C(c1ccc2nccnc2c1)N1CCCCC1 [CX516],0.75 to 1,1.25 to 1.5,1 to 1.25,<35,45-55,35-45,–,–,100,100,100,–
"CCCCCCCCCCCCCC[N+](C)(C)C.[Br-] [MiTMAB, reference compound]",–,–,–,–,–,–,>75,55-65,–,–,–,"Fold Change of Gigasomes Produced vs. DMSO ([2]; neuronal cells, dose 10000 nM): 2.0-3.0"
O=C(Nc1ccc(O)c(C(=O)O)c1)c1cccc(NC(=O)c2ccco2)c1 [OSS128167],–,–,–,>40,25-30,25-30,–,–,100,>75,100,"Fold Change of Gigasomes Produced vs. DMSO ([2]; neuronal cells, dose 10 nM): 1.0-1.25; Fold Change of Gigasomes Produced vs. DMSO ([2]; neuronal cells, dose 100 nM): 0.75-1.0; Fold Change of Gigasomes Produced vs. DMSO ([2]; neuronal cells, dose 1000 nM): 0.75-1.0"
CC(C)(O)c1coc(S(=O)(=O)NC(=O)Nc2c3c(cc4c2CCC4)CCC3)c1 [MCC950 sodium],1 to 1.25,1 to 1.25,0.5 to 0.75,35-40,35-40,20-25,100,25-30,100,>75,100,fold induction at 10 µM ([2]; 24 h): 0.75 to 1
"CCCn1cnc2c(NCc3ccc(C)s3)nc(N[C@H](CC)CO)nc21 [GV-58, reference compound]",–,–,–,25-30,20-25,20-25,>75,10-15,100,100,100,"Fold Change of Gigasomes Produced vs. DMSO ([2]; neuronal cells, dose 10 nM): 0.75-1.0; Fold Change of Gigasomes Produced vs. DMSO ([2]; neuronal cells, dose 100 nM): 0.75-1.0; Fold Change of Gigasomes Produced vs. DMSO ([2]; neuronal cells, dose 1000 nM): 0.75-1.0; Fold Change of Gigasomes Produced vs. DMSO ([2]; neuronal cells, dose 10000 nM): 0.25-0.5; downregulation of gigasome production ([2]; neuronal cells, doses 10-10,000 nM, 24 h): dose-dependent downregulation"
C/C(=C\c1csc(C)n1)[C@@H]1C[C@@H]2O[C@]2(C)CCC[C@H](C)[C@H](O)[C@@H](C)C(=O)C(C)(C)[C@@H](O)CC(=O)N1 [Ixabepilone],2 to 3,–,–,65-75,–,–,–,–,–,–,–,"Viability ([1]; human, 24 h, 10 nM): 50-75%"
"C/C=C1/[C@H](O[C@@H]2O[C@H](CO)[C@@H](O)[C@H](O)[C@H]2O)OC=C(C(=O)OC)[C@H]1CC(=O)OCCc1ccc(O)c(O)c1 [Oleuropein, reference compound]",1 to 1.25,0.75 to 1,0.75 to 1,>40,30-35,30-35,–,25-30,–,–,–,"Viability ([1]; human, 24 h, 10 nM): 100%; Viability ([1]; human, 24 h, 100 nM): 100%; Viability ([1]; human, 24 h, 1000 nM): >75%; Viability ([1]; human, 24 h, 10000 nM): 100%; fold induction at 10 µM ([2]; 24 h): 0.5 to 0.75"
CC[C@H](CO)Nc1nc(NCc2ccccc2)c2ncn(C(C)C)c2n1 [Seliciclib],0.75 to 1,0.75 to 1,0.75 to 1,25-30,25-30,25-30,100,15-20,100,100,100,fold induction at 10 µM ([2]; 24 h): 0.5 to 0.75
CC(=O)c1cc2c(o1)C(=O)c1ccccc1C2=O [Napabucasin],1 to 1.25,1.5 to 1.75,–,35-45,45-55,–,–,–,100,100,–,–
